Legend:
[1] = system: IL-6 expression; assay: TNF-α induced IL-6 expression in rat primary aortic endothelial cells; type: cell-based; conditions: 10 pM, 60 minutes prior to TNF-alpha 10 ng/ml
Method: (§1) Experiments were conducted to analyze for the effect of 5-HT2A receptor activation on proinflammatory marker expression in other cell types. Human neuroblastoma cells (SHSY5Y) and rat glioma cells (C6) can be obtained from the American Type Culture Collection (Manassas, Va.), but were provided Purdue University. The cells were grown in DMEM+10% FBS. DMEM was made and provided by the Cell and Molecular Core of the Mentoring in Cardiovascular Biology COBRE center at LSUHSC-NO. FBS was purchased from Invitrogen (Carlsbad, Calif.). Primary rat aortic endothelial cells were prepared fresh and provided by the Cell and Molecular Core of the Mentoring in Cardiovascular Biology COBRE center at LSUHSC-NO. Cells were tested at passages 3-4. Cells were grown in endothelial cell growth medium (Cell Applications, Inc.). Primary rat bronchoaveolar macrophage cells were obtained by lung lavage from rats and used at day 3 or 4 post plating in DMEM+10% FBS.
(§2) All treatments with 5-HT2A receptor agonists occurred 1 hour prior to the addition of TNF-alpha (10 ng/ml) or LPS (100 ng or 1 mg) depending on the experiment. All RNA isolations, cDNA synthesis, QPCR gene expression assays examining ICAM1, VCAM1, and IL6, and data analysis were performed as described above in Example 1, except the primers were different for the human cell experiment. […]

[2] = system: ICAM-1 gene expression; assay: TNF-α induced ICAM-1 gene expression in rat C6 glioma cells; type: cell-based; conditions: 1 nM and 50 nM prior to TNF-α
Method: as §1, §2

[3] = system: VCAM-1 gene expression; assay: TNF-α induced VCAM-1 gene expression in primary rat bronchoaveolar macrophage cells; type: cell-based
Method: as §1, §2

[4] = target: 5-HT2A receptor (Rattus norvegicus, UniProt P14842); conditions: read-out: EC50 phosphoinositide turnover; standard pharmacological assay of 5-HT2A receptor activity; cited from earlier work
[5] = system: VCAM-1 gene expression; assay: TNF-α induced VCAM-1 gene expression in rat primary aortic endothelial cells; type: cell-based; conditions: 10 pM, 60 minutes prior to TNF-alpha 10 ng/ml
Method: as §1, §2

[6] = system: ICAM-1 gene expression; assay: TNF-α induced ICAM-1 gene expression in human neuroblastoma cells (SHSY5Y); type: cell-based
Method: as §1, §2

Chain of 5-HT2A receptor (P14842 whole entry): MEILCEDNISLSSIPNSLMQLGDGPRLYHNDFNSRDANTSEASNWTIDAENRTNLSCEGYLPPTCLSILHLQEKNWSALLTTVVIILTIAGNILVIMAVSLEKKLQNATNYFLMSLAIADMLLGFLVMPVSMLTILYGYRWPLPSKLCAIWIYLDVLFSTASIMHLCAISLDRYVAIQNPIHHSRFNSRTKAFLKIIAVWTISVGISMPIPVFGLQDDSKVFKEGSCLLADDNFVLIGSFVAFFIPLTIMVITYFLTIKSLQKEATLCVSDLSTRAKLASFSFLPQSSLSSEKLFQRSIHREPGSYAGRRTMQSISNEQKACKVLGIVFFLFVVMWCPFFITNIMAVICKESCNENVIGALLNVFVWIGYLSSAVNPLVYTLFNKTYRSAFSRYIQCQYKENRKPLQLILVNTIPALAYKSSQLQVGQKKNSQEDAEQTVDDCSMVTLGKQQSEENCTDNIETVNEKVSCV

SMILES: COc1cc(C[C@@H](C)N)c(OC)cc1I [(R)-DOI, (R)-1-(2,5-dimethoxy-4-iodophenyl)-2-aminopropane]
- effect on TNF-α-induced IL-6 expression in aortic endothelial cells [1]: potently inhibited
- effect on ICAM-1 gene expression in rat glioma cells [2]: blocked
- effect on VCAM-1 gene expression in rat bronchoaveolar macrophage cells [3]: potently blocked
- IC50 ([3]; Rattus norvegicus, Macrophage, 1 hour prior to TNF-α 10 ng/ml, read-out: IC50 for VCAM-1 gene expression inhibition in rat bronchoaveolar macrophage cells): ~0.02 nM
- EC50 [4]: 10 to 20 nM
- effect on TNF-alpha induced increase in VCAM-1 gene expression in aortic endothelial cells [5]: less potent
- effect on ICAM-1 gene expression in human neuroblastoma cells [6]: blocked
- IC50 ([6]; Homo sapiens, Neuroblastoma cell, 1 hour prior to TNF-α 10 ng/ml, read-out: IC50 for ICAM-1 gene expression inhibition in human neuroblastoma cells): ~0.8 nM

Source: US9642819B2, “Low dosage serotonin 5-HT2A receptor agonist to suppress inflammation” (BOARD OF SUPERVISORS OF LOUISIANA STATE UNIVERSITY AND …, priority 2008, dated 2017)
